{"source": "patent US8492391B2", "about": "“Substituted 6-(2-hydroxybenzylamino)purine derivatives, their use as medicaments and compositions containing these derivatives” (Univerzita Palackeho V Olomouci, priority 2009, dated 2013)", "key": {"[1]": {"test_system": "C-terminal domain of RNA polymerase II (serine 2 and serine 5 phosphorylation)", "experiment": "Immunoblotting of RNA polymerase II CTD phosphorylation (CDK9 activity in cells), MCF-7", "format": "cell-based, human", "settings": "MCF-7 cells", "protocol": "Effect of compounds on CDK9 activity in cells was monitored by site-specific phosphorylations of C-terminal domain of RNA polymerase II, a substrate of CDK9, by means of immunoblotting. For immunoblotting, cell were detached with rubber policeman and washed three times with ice-cold PBS and lysed in buffer (50 mM Tris, pH 7.4, 250 mM NaCl, 5 mM EDTA, 50 mM NaF, 1 mM Na3VO4, 1% Nonidet P40) containing mixture of protease and phosphatase inhibitors (Sigma-Aldrich, USA). 20 μg of total proteins were separated by SDS-polyacrylamide gel electrophoresis (SDS-PAGE) and transferred onto nitrocellulose membranes. Membranes were blocked in 5% milk and 0.1% Tween 20 in PBS and probed overnight with specific monoclonal antibodies or rabbit polyclonal sera. Primary antibodies specific for RNA polymerase II (all from Santa Cruz Biotechnology, California, USA) included: (i) N-20 used at 1 μg/ml, (ii) H14, specific for form phosphorylated at phosphoserine 5, used at 6 μg/ml and (iii) H5, specific for form phosphorylated at phosphoserine 2 used at 4 μg/ml. […] All primary antibodies were diluted in PBS containing 5% powdered milk; 0.1% Tween 20. Peroxidase conjugated rabbit anti-mouse immunoglobulin or porcine anti-rabbit immunoglobulin antisera (DAKO, Denmark) were used as the secondary antibodies and visualised with ECL reagents (Amersham-Pharmacia, Little Chalfont, UK). […]"}, "[2]": {"test_system": "β-adrenergic receptors", "experiment": "Modulation of the activity of β-adrenergic receptors (isoproterenol-induced cAMP synthesis in C6 glioma)", "format": "cell-based", "settings": "rat C6 glioma, cAMP synthesis induced by 5 μM (−) isoproterenol, 30 min, simultaneous addition", "protocol": "Mechanism of action of novel compounds is presented on FIG. 2. […] Incubation was at 37° C. in a humidified atmosphere. Assays were performed in the logaritmic growth phase at a density of 2.5×10^5 cells/cm^2. Intracellular cAMP synthesis was induced by addition of 5 μM (−) isoproterenol. After 30 min incubation at 37° C. the medium was removed and the cellular amount of cAMP determined using the cAMP-enzyme immunoassay kit of Amersham. The I50 is determined from a dose-response curve in duplicate. The effect of several novel substituted 6-(2-hydroxybenzylamino)purine derivatives was measured after simultaneous addition with isoproterenol.\nAs P2Y1-like and A2 purinergic receptors, negatively and positively coupled to adenylate cyclase respectively, are present on rat C6 glioma. It has to be determined if the modulation of the synthesis of cAMP is due to inhibition of the activation of β-adrenergic receptors by isoproterenol are due to activation of purinergic receptors."}, "[3]": {"test_system": "p53", "experiment": "p53-dependent transcription, β-galactosidase reporter in Arn8 cells", "format": "cell-based, human", "parameters": "key to p53 (effect): induction of p53 protein: ++: very strong; +: weak; −: no effect", "source_text": "Protein p53, accumulated in nuclei upon treatment by the compounds, then leads to trans-activation of natural cell cycle inhibitor p21^WAF1, further blocking the cell cycle. […] This allows qualitative as well as quantitative measurement of CDK inhibitors-induced p53 transcriptional activity via β-galactosidase assay. Then, the effect will be verified in treated cells by immunoblotting of proteins expressed under the control of p53. β-galactosidase activity of human melanoma cell line Arn8 was determined as described. […] Alternatively, β-galactosidase activity was quantified by measuring fluorescence of methylumbelliferyl-β-D-galactopyranoside cleavage product. Cell lines established from the human breast carcinoma (MCF-7) and the human melanoma (Arn8) cell lines were cultured in Dubecco's Modified Eagle Medium (DMEM) supplemented with 10% foetal bovine serum.\nEffects of prepared compounds on activation of p53 protein were analysed in human melanoma cell line Arn8. […] The total β-galactosidase activity in Arn8 cells was quantified using a fluorimetric assay."}, "[4]": {"test_system": "p53, p21^WAF1, Mcl-1 in MCF-7 cells", "experiment": "Immunoblotting of p53, p21WAF1 and Mcl-1 in MCF-7 cells", "format": "cell-based, human", "settings": "MCF7, 24 h, concentration dependent, immunoblotting", "protocol": "(§1) For immunoblotting, cell were detached with rubber policeman and washed three times with ice-cold PBS and lysed in buffer (50 mM Tris, pH 7.4, 250 mM NaCl, 5 mM EDTA, 50 mM NaF, 1 mM Na3VO4, 1% Nonidet P40) containing mixture of protease and phosphatase inhibitors (Sigma-Aldrich, USA). 20 μg of total proteins were separated by SDS-polyacrylamide gel electrophoresis (SDS-PAGE) and transferred onto nitrocellulose membranes. Membranes were blocked in 5% milk and 0.1% Tween 20 in PBS and probed overnight with specific monoclonal antibodies or rabbit polyclonal sera. Primary antibodies specific for p53 (DO-1, in house), p21^WAF1 (118, in house), PARP-1 (2C10, Sigma-Aldrich St Louis, Mo., USA), Mcl-1 (S-19, Santa Cruz, USA), all used at 1 μg/ml. All primary antibodies were diluted in PBS containing 5% powdered milk; 0.1% Tween 20. Peroxidase conjugated rabbit anti-mouse immunoglobulin or porcine anti-rabbit immunoglobulin antisera (DAKO, Denmark) were used as the secondary antibodies and visualised with ECL reagents (Amersham-Pharmacia, Little Chalfont, UK).\nThe induction of p53 protein was apparent in 4 hrs but enhanced level of p21^WAF1 protein was observed only 12 hours after treatment with compound 128 (FIG. 5). The periods of time 12 and 24 hrs were chosen, since the level of protein expression reached a steady state."}, "[5]": {"test_system": "p53 in RPMI-8226 cells", "experiment": "Immunoblotting in RPMI-8226 cells with temperature-sensitive p53 (E285K) at permissive and restrictive temperature", "format": "cell-based, human", "settings": "RPMI-8226 cells, 30° C. versus restrictive temperature", "protocol": "as §1, with “Primary antibodies specific for p53 (DO-1, in house), p21^WAF1 (118, in house), PARP-1 (2C10, Sigma-Aldrich St Louis, Mo., USA), Mcl-1 (S-19, Santa Cruz, USA), all used at 1 μg/ml.” left out\nThen, we also determined effect of the compounds on the cell lines expressing some temperature-sensitive mutants of p53. For example, in BT474 and RPMI-8226 cells bearing temperature-sensitive mutant of p53 (E285K), p53 protein switches between mutant and wild-type conformation in a temperature-dependent manner. At restrictive (37° C.) temperature mutated p53 protein is expressed, while after shift to a permissive (30° C.) temperature p53 is folded correctly and functional. To analyze the functional involvement of p53 in the efficiency of the treatment with the compounds, we cultivated RPMI-8226 cells independently at two different temperatures (restrictive or permissive), and exposed them to increasing doses of selected compounds. The cell lysates were prepared and the levels of cell cycle regulators were analysed by immunoblotting."}}, "note": "“Also recorded” adds a separate entry of the source."}
{"smiles": "CC[C@H](CO)Nc1nc(NCc2ccccc2)c2ncn(C(C)C)c2n1", "note": "[ROSC, roscovitine, reference compound]", "values": [{"measurement": "levels of serine 2 and serine 5 phosphorylation of RNA polymerase II CTD", "setting": "[1]", "result": "substantially reduced; also recorded: is inhibited"}, {"measurement": "EFFECT (modulation of the activity of β-adrenergic receptors)", "setting": "[2]", "result": "inactive"}, {"measurement": "p53 (effect): induction of p53 protein", "setting": "[3]; Arn8 cells stable transfected with a β-galactosidase reporter gene", "result": "++"}, {"measurement": "activation of p53-dependent transcription", "setting": "[3]; Arn8 reporter cell line, β-galactosidase reporter activity", "result": "proved to activate p53-dependent transcription"}, {"measurement": "expression of p53, p21^Waf1 and Mcl-1", "setting": "[4]", "result": "accumulation of tumor suppressor protein p53, expression of p53-regulated CDK inhibitor p21^Waf1 and downregulation of antiapoptotic protein Mcl-1"}, {"measurement": "expression of anti-apoptotic protein Mcl-1", "setting": "[5]", "result": "suppressed more efficiently at 30 °C"}]}
